Data reported in US20070122414A1, “Surface marker-directed cancer therapeutics” (Aurelium BioPharma Inc., priority 2005, published 2007).

System: SKOV3 ovarian tumor cells
Assay: SKOV3 tumor xenograft in nude mice, relative tumor volume (Example 1)
Assay type: in vivo
Settings: SKOV3 tumors in nude mice; intravenous
Protocol: Starting on the first day of treatment, tumor growth was measured by […], and the volume of the xenograft was monitored every 4 days. […] Mice were then treated with vimentin-directed therapeutics. […] Taxol was obtained commercially from Sigma Corp. (St. Louis, Mo.).
All treatments were introduced by intravenous administration. Mice were then sacrificed and tumors excised for relative volume determinations.

## CC(=O)O[C@H]1C(=O)[C@@]2(C)[C@H]([C@H](OC(=O)c3ccccc3)[C@]3(O)C[C@H](OC(=O)[C@H](O)[C@@H](NC(=O)c4ccccc4)c4ccccc4)C(C)=C1C3(C)C)[C@]1(OC(C)=O)CO[C@@H]1C[C@@H]2O [taxol]
  tumor size/volume relative to other treatment groups: smaller than tumors in mice treated with vehicle or isotypic control, but not as small as the tumors isolated from mice treated with anti-vimentin antibodies and taxol together
